# ChEMBL document CHEMBL3396964, “SAH derived potent and selective EZH2 inhibitors” (Bioorg Med Chem Lett, 2015)
# The source made the active and inactive calls. The calls are words filed in the database; no cut-off is given here.
# Columns and labels:
# [1] = molecular target: T1, Histone-lysine N-methyltransferase EHMT2 (Homo sapiens) (UniProt Q96KQ7); assay: Inhibition of G9a (unknown origin) at 10 uM by HMT assay
# T1 sequence (whole entry): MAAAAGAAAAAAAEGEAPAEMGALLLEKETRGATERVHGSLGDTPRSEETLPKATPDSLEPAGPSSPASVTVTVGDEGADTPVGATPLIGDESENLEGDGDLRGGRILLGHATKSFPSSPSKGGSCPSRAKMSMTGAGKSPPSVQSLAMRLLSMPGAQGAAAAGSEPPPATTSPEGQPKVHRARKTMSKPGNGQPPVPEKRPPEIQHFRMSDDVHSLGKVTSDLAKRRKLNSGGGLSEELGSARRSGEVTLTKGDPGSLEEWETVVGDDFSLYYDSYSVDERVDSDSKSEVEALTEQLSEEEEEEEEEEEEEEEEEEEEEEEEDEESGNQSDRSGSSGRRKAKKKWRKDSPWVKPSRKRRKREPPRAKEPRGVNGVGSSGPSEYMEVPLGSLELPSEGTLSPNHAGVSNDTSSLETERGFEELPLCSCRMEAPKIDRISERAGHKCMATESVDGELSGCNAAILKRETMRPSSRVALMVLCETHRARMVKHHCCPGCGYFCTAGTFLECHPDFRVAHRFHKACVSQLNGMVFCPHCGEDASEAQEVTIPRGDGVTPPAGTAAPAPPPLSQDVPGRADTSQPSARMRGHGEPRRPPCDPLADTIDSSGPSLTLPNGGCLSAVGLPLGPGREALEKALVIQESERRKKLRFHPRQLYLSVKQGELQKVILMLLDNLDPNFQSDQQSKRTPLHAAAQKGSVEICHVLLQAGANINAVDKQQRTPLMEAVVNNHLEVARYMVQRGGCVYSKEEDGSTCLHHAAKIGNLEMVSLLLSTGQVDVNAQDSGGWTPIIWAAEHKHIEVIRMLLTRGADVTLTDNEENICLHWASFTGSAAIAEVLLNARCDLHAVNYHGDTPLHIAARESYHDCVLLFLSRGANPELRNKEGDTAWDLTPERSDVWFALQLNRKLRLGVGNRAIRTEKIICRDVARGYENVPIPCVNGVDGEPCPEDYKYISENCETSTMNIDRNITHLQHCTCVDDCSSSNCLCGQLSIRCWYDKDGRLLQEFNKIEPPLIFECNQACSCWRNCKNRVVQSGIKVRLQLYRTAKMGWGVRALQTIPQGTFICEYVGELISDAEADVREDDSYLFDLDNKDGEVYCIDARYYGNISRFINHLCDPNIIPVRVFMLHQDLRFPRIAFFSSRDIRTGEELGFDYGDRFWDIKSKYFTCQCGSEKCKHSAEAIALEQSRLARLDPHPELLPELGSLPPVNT
# [2] = molecular target: T2, Histone-lysine N-methyltransferase EHMT2 (Homo sapiens, UniProt Q96KQ7); assay: Inhibition of G9a (unknown origin) by HMT assay
# T2 sequence (Q96KQ7 whole entry): T1 sequence (whole entry)
# [3] = molecular target: Histone-lysine N-methyltransferase SUV39H2 (Homo sapiens, UniProt Q9H5I1); assay: Inhibition of SUV39H2 (unknown origin) at 10 uM by HMT assay
# Sequence of Histone-lysine N-methyltransferase SUV39H2 (Q9H5I1 whole entry): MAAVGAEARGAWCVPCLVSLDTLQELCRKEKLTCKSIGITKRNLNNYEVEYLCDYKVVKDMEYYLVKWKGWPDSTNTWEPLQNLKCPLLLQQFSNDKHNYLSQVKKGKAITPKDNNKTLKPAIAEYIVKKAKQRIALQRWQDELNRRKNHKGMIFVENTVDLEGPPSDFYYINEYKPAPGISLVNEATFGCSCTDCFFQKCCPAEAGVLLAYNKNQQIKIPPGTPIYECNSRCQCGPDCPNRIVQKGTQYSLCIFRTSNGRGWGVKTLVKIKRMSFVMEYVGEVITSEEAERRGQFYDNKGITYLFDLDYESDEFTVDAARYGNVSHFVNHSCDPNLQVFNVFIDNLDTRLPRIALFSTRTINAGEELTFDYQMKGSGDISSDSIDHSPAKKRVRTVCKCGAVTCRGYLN
# [4] = molecular target: Histone-lysine N-methyltransferase KMT5C (Homo sapiens, UniProt Q86Y97); settings: 10 uM
# Sequence of Histone-lysine N-methyltransferase KMT5C (Q86Y97 whole entry, looked up): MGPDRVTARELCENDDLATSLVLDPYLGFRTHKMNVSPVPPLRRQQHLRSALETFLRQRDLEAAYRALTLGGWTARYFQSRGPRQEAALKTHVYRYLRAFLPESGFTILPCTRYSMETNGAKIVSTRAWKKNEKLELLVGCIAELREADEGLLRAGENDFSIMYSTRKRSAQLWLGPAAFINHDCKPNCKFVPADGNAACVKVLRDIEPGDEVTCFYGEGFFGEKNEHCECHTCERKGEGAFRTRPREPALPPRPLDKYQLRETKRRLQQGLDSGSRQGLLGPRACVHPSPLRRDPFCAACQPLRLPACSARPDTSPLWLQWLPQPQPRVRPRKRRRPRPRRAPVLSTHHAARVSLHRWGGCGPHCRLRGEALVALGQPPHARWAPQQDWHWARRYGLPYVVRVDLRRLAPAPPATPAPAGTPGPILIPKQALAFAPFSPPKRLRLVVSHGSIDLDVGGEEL
# Description: Inhibition of SUV420H2 (unknown origin) at 10 uM by HMT assay
# [5] = molecular target: Histone-lysine N-methyltransferase EZH2 (Homo sapiens, UniProt O75530+Q09028+Q15022+Q15910); assay: Inhibition of N-terminally FLAG-tagged wild type EZH2 in EZH2/SUZ12/EED/RbAp48 complex (unknown origin) expressed in baculovirus infected in SF9 cells assessed as inhibition of methylation of nucleosomes at H3K27 by scintillation counting in presence of [3H]SAM
# Sequence of Histone-lysine N-methyltransferase EZH2 (Q15910 whole entry, one chain of several): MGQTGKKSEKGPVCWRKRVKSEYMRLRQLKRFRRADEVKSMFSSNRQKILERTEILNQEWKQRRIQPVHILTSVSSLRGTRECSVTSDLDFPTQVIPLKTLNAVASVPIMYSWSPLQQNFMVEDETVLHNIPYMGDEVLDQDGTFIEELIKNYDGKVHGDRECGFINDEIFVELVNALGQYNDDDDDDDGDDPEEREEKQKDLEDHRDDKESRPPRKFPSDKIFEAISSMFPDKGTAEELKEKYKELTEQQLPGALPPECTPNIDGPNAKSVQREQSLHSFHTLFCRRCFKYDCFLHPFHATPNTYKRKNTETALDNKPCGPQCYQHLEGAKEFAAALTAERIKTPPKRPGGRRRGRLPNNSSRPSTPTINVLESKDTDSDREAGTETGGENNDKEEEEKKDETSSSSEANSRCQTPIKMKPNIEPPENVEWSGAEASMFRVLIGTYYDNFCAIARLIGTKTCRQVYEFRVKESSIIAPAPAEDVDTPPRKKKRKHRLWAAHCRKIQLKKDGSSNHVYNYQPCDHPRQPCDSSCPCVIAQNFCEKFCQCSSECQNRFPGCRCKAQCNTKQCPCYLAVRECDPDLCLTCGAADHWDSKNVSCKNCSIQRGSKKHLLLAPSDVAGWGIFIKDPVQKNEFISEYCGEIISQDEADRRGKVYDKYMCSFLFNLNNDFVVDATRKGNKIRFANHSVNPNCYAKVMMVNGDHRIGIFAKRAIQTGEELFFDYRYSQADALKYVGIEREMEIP
# [6] = molecular target: Histone-lysine N-methyltransferase SETDB1 (Homo sapiens, UniProt Q15047); settings: 10 uM
# Description: Inhibition of SETDB1 (unknown origin) at 10 uM by HMT assay
# [7] = molecular target: N-lysine methyltransferase SMYD2 (Homo sapiens, UniProt Q9NRG4); assay: Inhibition of SMYD2 (unknown origin) by HMT assay
# Sequence of N-lysine methyltransferase SMYD2 (Q9NRG4 whole entry): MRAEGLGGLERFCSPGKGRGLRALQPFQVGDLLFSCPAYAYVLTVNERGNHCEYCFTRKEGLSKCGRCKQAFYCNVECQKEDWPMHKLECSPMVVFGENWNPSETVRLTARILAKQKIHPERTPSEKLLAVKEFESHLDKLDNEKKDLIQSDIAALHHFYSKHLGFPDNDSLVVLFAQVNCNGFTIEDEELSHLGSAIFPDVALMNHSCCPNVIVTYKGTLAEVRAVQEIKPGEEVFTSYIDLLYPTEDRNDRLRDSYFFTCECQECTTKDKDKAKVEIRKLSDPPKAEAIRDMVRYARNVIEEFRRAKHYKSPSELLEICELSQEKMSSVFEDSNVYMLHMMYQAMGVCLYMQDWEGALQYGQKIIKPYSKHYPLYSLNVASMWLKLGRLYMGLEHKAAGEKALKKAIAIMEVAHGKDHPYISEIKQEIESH
# [8] = molecular target: Histone-lysine N-methyltransferase 2A (Homo sapiens, UniProt Q03164); assay: Inhibition of MLL (unknown origin) by HMT assay
# [9] = molecular target: T3, Histone-lysine N-methyltransferase EZH1 (Homo sapiens, UniProt Q92800); assay: Inhibition of EZH1 (unknown origin) by HMT assay
# T3 sequence (Q92800 whole entry): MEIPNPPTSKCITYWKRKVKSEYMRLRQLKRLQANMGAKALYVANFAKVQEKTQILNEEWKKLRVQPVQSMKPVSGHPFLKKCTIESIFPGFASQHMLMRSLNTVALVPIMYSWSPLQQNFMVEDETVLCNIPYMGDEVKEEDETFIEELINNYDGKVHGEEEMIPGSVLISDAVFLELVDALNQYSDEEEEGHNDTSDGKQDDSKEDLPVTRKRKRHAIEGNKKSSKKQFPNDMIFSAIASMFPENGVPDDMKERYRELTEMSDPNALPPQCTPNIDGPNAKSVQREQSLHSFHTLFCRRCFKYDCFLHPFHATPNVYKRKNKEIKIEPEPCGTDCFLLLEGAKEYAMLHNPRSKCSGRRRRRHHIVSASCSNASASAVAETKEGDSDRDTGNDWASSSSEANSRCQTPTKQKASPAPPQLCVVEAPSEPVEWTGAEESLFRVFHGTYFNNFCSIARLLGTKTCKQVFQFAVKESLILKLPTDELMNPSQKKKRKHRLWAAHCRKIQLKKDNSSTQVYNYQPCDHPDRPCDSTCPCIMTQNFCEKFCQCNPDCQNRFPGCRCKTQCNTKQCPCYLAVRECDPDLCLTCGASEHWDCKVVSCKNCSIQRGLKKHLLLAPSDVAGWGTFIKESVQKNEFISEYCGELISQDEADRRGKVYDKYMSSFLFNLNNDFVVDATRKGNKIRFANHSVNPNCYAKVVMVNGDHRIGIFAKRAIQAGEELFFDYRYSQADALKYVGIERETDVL
smiles,measurement,setting,value
Nc1ncnc2c1ncn2[C@@H]1O[C@H](CSCC[C@H](N)C(=O)NCc2cc(-c3ccccc3)[nH]n2)[C@@H](O)[C@H]1O,inhibition,[1],20%
same,IC50,[2],> 100 µM
same,inhibition,[3],20%
same,inhibition,[4],inactive
same,IC50,[5],0.27 µM
same,inhibition,[6],inactive
same,IC50,[7],> 100 µM
same,IC50,[8],18.5 µM
same,IC50,[9],2.1 µM
